# Experimental data published in patent publication US20080009418A1, “Selective Inhibitors” (Alchemia LTD., priority 2004, published 2008).
# Tests used:
# Human melanocortin (MC5) = target: T1, Human melanocortin (MC5) (Homo sapiens, UniProt P33032); assay: Radioligand binding, human melanocortin MC5 membranes, FlashPlate, [125I]-NDP-αMSH; conditions: compound at 10 μM; [125I]-NDP-αMSH
# T1 construct: purchased Perkin Elmer Biosignal
# Method in brief: (§1)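 Cloned human receptor membranes were coated onto FlashPlate wells and incubated with radioligand and compound (added from a 0.5 mM DMSO daughter plate) for 1 hour at room temperature in the dark. Scintillation counting gave percent inhibition, with DMSO defining total and reference ligand defining non-specific binding.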
# Human μ-opioid (MOP) = target: T2, Human μ-opioid (MOP) (Homo sapiens, UniProt P35372); assay: Radioligand binding, human μ-opioid (MOP) membranes, FlashPlate, [3H]-Naloxone; conditions: compound at 10 μM; [3H]-Naloxone
# T2 construct: purchased Perkin Elmer Biosignal
# Method in brief: as §1
# [1] = target: T3, Human neuropeptide Y (NPY-Y1) (Homo sapiens, UniProt P25929); assay: Radioligand binding, human neuropeptide Y NPY-Y1 membranes, FlashPlate, [125I]-PYY; conditions: compound at 10 μM, [125I]-PYY
# T3 construct: purchased Perkin Elmer Biosignal
# T3 sequence (P25929 1-384): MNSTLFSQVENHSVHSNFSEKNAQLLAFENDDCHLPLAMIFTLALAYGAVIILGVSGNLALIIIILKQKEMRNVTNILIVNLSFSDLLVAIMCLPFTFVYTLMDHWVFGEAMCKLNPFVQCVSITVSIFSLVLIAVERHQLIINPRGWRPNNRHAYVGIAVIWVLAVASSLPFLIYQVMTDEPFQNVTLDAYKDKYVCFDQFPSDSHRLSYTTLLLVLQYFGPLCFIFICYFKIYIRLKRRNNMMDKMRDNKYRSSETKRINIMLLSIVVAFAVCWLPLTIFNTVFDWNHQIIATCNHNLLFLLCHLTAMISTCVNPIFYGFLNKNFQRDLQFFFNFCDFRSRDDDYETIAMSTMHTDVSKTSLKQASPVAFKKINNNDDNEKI
# Method in brief: as §1
# [2] = target: T4, Human melanin-concentrating hormone (MCH1) (Homo sapiens, UniProt Q99705); assay: Radioligand binding, human melanin-concentrating hormone MCH1 membranes, FlashPlate, [125I]-S36057; conditions: compound at 10 μM; [125I]-S36057
# T4 construct: purchased Perkin Elmer Biosignal
# Method in brief: as §1
# Human Melanocortin (MC3) = target: T5, Human Melanocortin (MC3) (Homo sapiens, UniProt P41968); assay: Radioligand binding, human melanocortin MC3 membranes, FlashPlate, [125I]-NDP-αMSH; conditions: compound at 10 μM, [125I]-NDP-αMSH
# T5 construct: purchased Perkin Elmer Biosignal
# Method in brief: as §1
# Human neurokinin (NK1) = target: T6, Human neurokinin (NK1) (Homo sapiens, UniProt P25103); assay: Radioligand binding, human neurokinin NK1 membranes, filtration, [125I]-Substance P; conditions: compound at 10 μM; [125I]-Substance P
# T6 construct: purchased Perkin Elmer Biosignal
# Method in brief: (§2)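 Filtration binding on cloned human receptor membranes (1 Unit/well), [125I]-Substance P for NK1 and [3H]-Diprenorphine for KOP, 1 h at room temperature. Filters PEI-presoaked, washed with cold 50 mM Tris-HCl pH 7.4, counted by scintillation; percent inhibition calculated, reference ligand defining non-specific binding.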
# Human δ-opioid (DOP) = target: T7, Human δ-opioid (DOP) (Homo sapiens, UniProt P41143); assay: Radioligand binding, human δ-opioid (DOP) membranes, FlashPlate, [3H]-Bremazocine; conditions: compound at 10 μM; [3H]-Bremazocine
# T7 construct: purchased Perkin Elmer Biosignal
# Method in brief: as §1
# Mouse urotensin (mUR2) = target: T8, Mouse urotensin (mUR2) (Mus musculus, UniProt Q8VIH9); assay: Radioligand binding, mouse urotensin mUR2 membranes, FlashPlate, [125I]-Urotensin II; conditions: compound at 10 μM, [125I]-Urotensin II
# T8 construct: purchased Perkin Elmer Biosignal
# T8 sequence (Q8VIH9 1-385): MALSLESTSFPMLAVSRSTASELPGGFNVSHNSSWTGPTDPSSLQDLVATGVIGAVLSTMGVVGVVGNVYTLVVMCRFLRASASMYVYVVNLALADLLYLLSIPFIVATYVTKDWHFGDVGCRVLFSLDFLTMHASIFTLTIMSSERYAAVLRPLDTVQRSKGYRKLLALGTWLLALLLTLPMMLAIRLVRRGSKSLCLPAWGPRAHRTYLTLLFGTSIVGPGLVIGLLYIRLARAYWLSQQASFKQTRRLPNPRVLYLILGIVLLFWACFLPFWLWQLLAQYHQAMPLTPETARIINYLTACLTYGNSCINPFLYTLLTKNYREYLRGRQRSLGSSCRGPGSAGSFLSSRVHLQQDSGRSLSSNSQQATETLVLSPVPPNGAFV
# Method in brief: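 Cloned mouse urotensin (mUR2) receptor membranes from Perkin Elmer Biosignal were immobilized in FlashPlate microplates using a proprietary coating. Each well got 19.5 μl buffer, then 0.5 μl of DMSO, reference ligand, or compound. Adding 5 μl of [125I]-Urotensin II, diluted to 5× final concentration in binding buffer, started binding. Plates were sealed with TopSeal-A and incubated 1 hour at room temperature in the dark. Wells were counted for 30 seconds each on a TopCount after a 60-second delay, and percentage inhibition was calculated.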
# Human opioid (ORL1) = target: T9, Human opioid (ORL1) (Homo sapiens, UniProt P41146); assay: Radioligand binding, human opioid ORL1 membranes, FlashPlate, [125I]-Nociceptin; conditions: compound at 10 μM; [125I]-Nociceptin
# T9 construct: purchased Perkin Elmer Biosignal
# Method in brief: as §1
# Human Melanocortin (MC4) = target: T10, Human Melanocortin (MC4) (Homo sapiens, UniProt P32245); assay: Radioligand binding, human melanocortin MC4 membranes, FlashPlate, [125I]-NDP-αMSH; conditions: compound at 10 μM; [125I]-NDP-αMSH
# T10 construct: purchased Perkin Elmer Biosignal
# Method in brief: as §1
# Human κ-Opioid (KOP) = target: T11, Human κ-Opioid (KOP) (Homo sapiens, UniProt P41145); assay: Radioligand binding, human κ-opioid (KOP) membranes, filtration, [3H]-Diprenorphine; conditions: compound at 10 μM, [3H]-Diprenorphine
# T11 construct: purchased Perkin Elmer Biosignal
# Method in brief: as §2
# T9 sequence (P41146 whole entry): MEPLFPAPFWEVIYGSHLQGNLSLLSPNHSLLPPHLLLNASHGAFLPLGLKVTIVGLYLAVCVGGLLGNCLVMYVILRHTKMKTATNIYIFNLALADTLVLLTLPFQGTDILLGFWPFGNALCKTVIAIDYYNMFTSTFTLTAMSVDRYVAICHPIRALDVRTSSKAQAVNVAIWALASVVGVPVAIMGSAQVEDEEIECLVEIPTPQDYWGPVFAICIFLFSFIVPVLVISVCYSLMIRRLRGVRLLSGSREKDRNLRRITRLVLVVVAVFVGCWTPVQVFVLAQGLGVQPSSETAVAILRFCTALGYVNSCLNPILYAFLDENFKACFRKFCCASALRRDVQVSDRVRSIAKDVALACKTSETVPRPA
# T2 sequence (P35372 whole entry): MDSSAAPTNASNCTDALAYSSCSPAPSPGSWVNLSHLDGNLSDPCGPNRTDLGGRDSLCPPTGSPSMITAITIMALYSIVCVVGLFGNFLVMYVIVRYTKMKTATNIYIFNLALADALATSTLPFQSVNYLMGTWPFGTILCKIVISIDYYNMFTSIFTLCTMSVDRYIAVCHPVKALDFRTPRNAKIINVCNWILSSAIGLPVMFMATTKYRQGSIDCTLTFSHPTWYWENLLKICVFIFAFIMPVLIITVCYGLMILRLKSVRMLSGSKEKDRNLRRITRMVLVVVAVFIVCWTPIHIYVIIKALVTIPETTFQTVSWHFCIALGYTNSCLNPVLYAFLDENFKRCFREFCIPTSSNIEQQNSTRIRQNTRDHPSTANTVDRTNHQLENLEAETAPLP
# T11 sequence (P41145 whole entry): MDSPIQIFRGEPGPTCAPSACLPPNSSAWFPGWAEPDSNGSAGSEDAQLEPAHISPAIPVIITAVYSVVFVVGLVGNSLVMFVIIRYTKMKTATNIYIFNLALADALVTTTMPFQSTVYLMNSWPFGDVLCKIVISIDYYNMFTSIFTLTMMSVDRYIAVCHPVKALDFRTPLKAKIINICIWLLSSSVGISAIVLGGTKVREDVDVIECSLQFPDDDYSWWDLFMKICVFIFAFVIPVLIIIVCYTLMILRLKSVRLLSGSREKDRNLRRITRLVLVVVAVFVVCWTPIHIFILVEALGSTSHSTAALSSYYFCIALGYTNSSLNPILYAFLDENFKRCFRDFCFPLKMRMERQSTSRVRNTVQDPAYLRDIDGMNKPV
# T1 sequence (P33032 whole entry): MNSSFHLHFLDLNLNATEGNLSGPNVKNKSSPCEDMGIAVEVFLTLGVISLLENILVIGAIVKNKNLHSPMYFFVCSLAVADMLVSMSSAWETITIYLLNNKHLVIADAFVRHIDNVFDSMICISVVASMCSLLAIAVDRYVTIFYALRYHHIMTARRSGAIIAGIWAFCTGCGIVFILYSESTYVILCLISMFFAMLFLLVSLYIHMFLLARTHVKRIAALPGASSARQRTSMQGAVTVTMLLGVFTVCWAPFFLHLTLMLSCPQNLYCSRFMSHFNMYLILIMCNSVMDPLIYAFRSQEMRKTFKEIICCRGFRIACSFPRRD
# T6 sequence (P25103 whole entry): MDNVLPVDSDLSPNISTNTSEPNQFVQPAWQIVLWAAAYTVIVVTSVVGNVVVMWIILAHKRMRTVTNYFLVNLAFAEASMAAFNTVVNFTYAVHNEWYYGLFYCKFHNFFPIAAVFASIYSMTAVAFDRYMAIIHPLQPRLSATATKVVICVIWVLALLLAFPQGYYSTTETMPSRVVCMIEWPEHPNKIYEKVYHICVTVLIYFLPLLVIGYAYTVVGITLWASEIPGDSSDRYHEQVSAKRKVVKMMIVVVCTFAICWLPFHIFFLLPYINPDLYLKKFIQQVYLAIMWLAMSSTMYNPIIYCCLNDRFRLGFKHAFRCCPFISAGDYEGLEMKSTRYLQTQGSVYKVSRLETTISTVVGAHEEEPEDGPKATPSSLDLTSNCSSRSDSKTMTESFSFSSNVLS
# T5 sequence (P41968 whole entry): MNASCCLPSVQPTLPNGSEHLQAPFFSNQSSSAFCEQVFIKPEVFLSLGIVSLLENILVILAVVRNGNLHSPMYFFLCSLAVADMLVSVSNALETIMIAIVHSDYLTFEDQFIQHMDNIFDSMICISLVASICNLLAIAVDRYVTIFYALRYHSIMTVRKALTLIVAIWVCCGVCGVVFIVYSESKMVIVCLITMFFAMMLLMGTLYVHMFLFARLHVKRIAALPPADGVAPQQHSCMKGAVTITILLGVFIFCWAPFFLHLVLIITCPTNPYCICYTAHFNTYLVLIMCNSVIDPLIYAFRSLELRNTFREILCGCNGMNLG
# T7 sequence (P41143 whole entry): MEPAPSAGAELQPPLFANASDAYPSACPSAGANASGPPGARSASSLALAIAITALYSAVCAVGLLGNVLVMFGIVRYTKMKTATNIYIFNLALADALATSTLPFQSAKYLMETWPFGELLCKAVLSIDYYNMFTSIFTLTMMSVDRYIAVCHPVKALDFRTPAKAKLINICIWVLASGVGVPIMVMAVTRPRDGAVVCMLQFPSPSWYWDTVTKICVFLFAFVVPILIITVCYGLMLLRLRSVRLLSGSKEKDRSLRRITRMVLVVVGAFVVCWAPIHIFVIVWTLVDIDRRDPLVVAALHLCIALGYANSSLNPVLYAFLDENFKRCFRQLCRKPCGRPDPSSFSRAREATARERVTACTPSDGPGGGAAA
# T4 sequence (Q99705 whole entry): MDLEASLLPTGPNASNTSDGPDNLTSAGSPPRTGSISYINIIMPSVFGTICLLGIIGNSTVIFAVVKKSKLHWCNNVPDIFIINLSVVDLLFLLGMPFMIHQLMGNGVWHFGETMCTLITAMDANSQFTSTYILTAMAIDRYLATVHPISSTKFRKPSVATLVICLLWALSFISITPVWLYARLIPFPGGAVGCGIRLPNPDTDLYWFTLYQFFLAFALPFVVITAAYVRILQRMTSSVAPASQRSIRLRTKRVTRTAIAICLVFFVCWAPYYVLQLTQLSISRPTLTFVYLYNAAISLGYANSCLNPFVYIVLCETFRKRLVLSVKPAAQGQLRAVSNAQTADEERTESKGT
# T10 sequence (P32245 whole entry): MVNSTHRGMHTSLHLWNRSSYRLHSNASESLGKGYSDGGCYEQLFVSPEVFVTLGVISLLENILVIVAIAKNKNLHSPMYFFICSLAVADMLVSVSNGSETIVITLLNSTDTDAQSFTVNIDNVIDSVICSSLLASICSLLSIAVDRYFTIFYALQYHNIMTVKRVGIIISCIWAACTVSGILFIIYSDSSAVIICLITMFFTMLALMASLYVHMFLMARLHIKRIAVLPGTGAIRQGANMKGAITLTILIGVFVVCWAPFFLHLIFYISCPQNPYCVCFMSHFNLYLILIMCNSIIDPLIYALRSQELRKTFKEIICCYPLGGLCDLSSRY
Compound,"A5 radioligand binding, percentage inhibition (Human melanocortin (MC5))","A7 radioligand binding, percentage inhibition (Human μ-opioid (MOP))","A9 radioligand binding, percentage inhibition [1]","A6 radioligand binding, percentage inhibition [2]","A3 radioligand binding, percentage inhibition (Human Melanocortin (MC3))","A8 radioligand binding, percentage inhibition (Human neurokinin (NK1))","A1 radioligand binding, percentage inhibition (Human δ-opioid (DOP))","A11 radioligand binding, percentage inhibition (Mouse urotensin (mUR2))","A10 radioligand binding, percentage inhibition (Human opioid (ORL1))","A4 radioligand binding, percentage inhibition (Human Melanocortin (MC4))","A2 radioligand binding, percentage inhibition (Human κ-Opioid (KOP))","A5: inhibition of radioligand binding, human melanocortin (MC5) (Human melanocortin (MC5))","A7: inhibition of radioligand binding, human μ-opioid (MOP) (Human μ-opioid (MOP))","A6: inhibition of radioligand binding, human melanin-concentrating hormone (MCH1) [2]","A8: inhibition of radioligand binding, human neurokinin (NK1) (Human neurokinin (NK1))","A1: inhibition of radioligand binding, human δ-opioid (DOP) (Human δ-opioid (DOP))","A10: inhibition of radioligand binding, human opioid (ORL1) (Human opioid (ORL1))","A4: inhibition of radioligand binding, human melanocortin (MC4) (Human Melanocortin (MC4))",also measured
COC[C@H]1OC(OCc2ccc(-c3ccccc3)cc2)[C@H](NC(=O)CNC(=N)N)[C@@H](OCc2cccc(O)c2)[C@@H]1O (stereo partly drawn) [compound 129],− (“−” indicates less than 50% inhibition at 10 μM),+ (“+” indicates greater than 50% inhibition at 10 μM),− (“−” indicates less than 50% inhibition at 10 μM),− (“−” indicates less than 50% inhibition at 10 μM),− (“−” indicates less than 50% inhibition at 10 μM),− (“−” indicates less than 50% inhibition at 10 μM),− (“−” indicates less than 50% inhibition at 10 μM),− (“−” indicates less than 50% inhibition at 10 μM),− (“−” indicates less than 50% inhibition at 10 μM),− (“−” indicates less than 50% inhibition at 10 μM),− (“−” indicates less than 50% inhibition at 10 μM),,,,,,,,
COC[C@H]1OC(OCc2ccc(-c3ccccc3)cc2)[C@H](NC(=O)CCCNC(=N)N)[C@@H](OCc2cccc(O)c2)[C@@H]1O (stereo partly drawn) [compound 132],− (“−” indicates less than 50% inhibition at 10 μM),+ (“+” indicates greater than 50% inhibition at 10 μM),− (“−” indicates less than 50% inhibition at 10 μM),− (“−” indicates less than 50% inhibition at 10 μM),− (“−” indicates less than 50% inhibition at 10 μM),− (“−” indicates less than 50% inhibition at 10 μM),− (“−” indicates less than 50% inhibition at 10 μM),− (“−” indicates less than 50% inhibition at 10 μM),− (“−” indicates less than 50% inhibition at 10 μM),− (“−” indicates less than 50% inhibition at 10 μM),+ (“+” indicates greater than 50% inhibition at 10 μM),,,,,,,,
"NCCCC(=O)NC1C(OCc2ccc(Cl)cc2)OC(COCc2ccc(Cl)cc2)C(O)C1OCc1ccc(Cl)cc1 (single isomer, unassigned) [compound 494]",,,,,,,,,,,,+ (“+” indicates greater than 50% inhibition at 10 μM),− (“−” indicates less than 50% inhibition at 10 μM),+ (“+” indicates greater than 50% inhibition at 10 μM),+ (“+” indicates greater than 50% inhibition at 10 μM),− (“−” indicates less than 50% inhibition at 10 μM),+ (“+” indicates greater than 50% inhibition at 10 μM),+ (“+” indicates greater than 50% inhibition at 10 μM),"A9: inhibition of radioligand binding, human neuropeptide Y (NPY-Y1) [1]: − (“−” indicates less than 50% inhibition at 10 μM); A3: inhibition of radioligand binding, human melanocortin (MC3) (Human Melanocortin (MC3); 10 µM): + (“+” indicates greater than 50% inhibition at 10 μM); A11: inhibition of radioligand binding, mouse urotensin (mUR2) (Mouse urotensin (mUR2)): − (“−” indicates less than 50% inhibition at 10 μM); A2: inhibition of radioligand binding, human κ-opioid (KOP) (Human κ-Opioid (KOP)): − (“−” indicates less than 50% inhibition at 10 μM)"
N=C(N)NCCC(=O)N[C@H]1C(OCc2ccc(Cl)cc2)O[C@H](COCc2ccc(Cl)cc2)[C@@H](O)[C@@H]1OCc1ccc(-c2ccccc2)cc1 (stereo partly drawn) [compound 538],,,,,,,,,,,,+ (“+” indicates greater than 50% inhibition at 10 μM),− (“−” indicates less than 50% inhibition at 10 μM),+ (“+” indicates greater than 50% inhibition at 10 μM),+ (“+” indicates greater than 50% inhibition at 10 μM),− (“−” indicates less than 50% inhibition at 10 μM),+ (“+” indicates greater than 50% inhibition at 10 μM),+ (“+” indicates greater than 50% inhibition at 10 μM),"A9: inhibition of radioligand binding, human neuropeptide Y (NPY-Y1) ([1]; 10 µM): + (“+” indicates greater than 50% inhibition at 10 μM); A3: inhibition of radioligand binding, human melanocortin (MC3) (Human Melanocortin (MC3)): + (“+” indicates greater than 50% inhibition at 10 μM); A11: inhibition of radioligand binding, mouse urotensin (mUR2) (Mouse urotensin (mUR2); 10 µM): + (“+” indicates greater than 50% inhibition at 10 μM); A2: inhibition of radioligand binding, human κ-opioid (KOP) (Human κ-Opioid (KOP); 10 µM): + (“+” indicates greater than 50% inhibition at 10 μM)"
CO[C@H]1[C@H](O)[C@@H](COCc2ccc3ccccc3c2)OC(OCCNC(=N)N)[C@@H]1NC(=O)c1ccccc1 (stereo partly drawn) [compound 124],+ (“+” indicates greater than 50% inhibition at 10 μM),− (“−” indicates less than 50% inhibition at 10 μM),− (“−” indicates less than 50% inhibition at 10 μM),− (“−” indicates less than 50% inhibition at 10 μM),− (“−” indicates less than 50% inhibition at 10 μM),+ (“+” indicates greater than 50% inhibition at 10 μM),− (“−” indicates less than 50% inhibition at 10 μM),− (“−” indicates less than 50% inhibition at 10 μM),− (“−” indicates less than 50% inhibition at 10 μM),− (“−” indicates less than 50% inhibition at 10 μM),− (“−” indicates less than 50% inhibition at 10 μM),,,,,,,,
COCC1OC(OCc2ccccc2)C(NC(=O)CNC(=N)N)C(OCc2ccc(Cl)cc2)C1O (stereo not drawn) [compound 177],+ (“+” indicates greater than 50% inhibition at 10 μM),− (“−” indicates less than 50% inhibition at 10 μM),− (“−” indicates less than 50% inhibition at 10 μM),− (“−” indicates less than 50% inhibition at 10 μM),+ (“+” indicates greater than 50% inhibition at 10 μM),+ (“+” indicates greater than 50% inhibition at 10 μM),− (“−” indicates less than 50% inhibition at 10 μM),− (“−” indicates less than 50% inhibition at 10 μM),− (“−” indicates less than 50% inhibition at 10 μM),+ (“+” indicates greater than 50% inhibition at 10 μM),− (“−” indicates less than 50% inhibition at 10 μM),,,,,,,,
